Values quoted from earlier work in US20210008095A1, “METHODS FOR TREATING MUSCULAR DYSTROPHY” (Sarepta Therapeutics, Inc., priority 2015, published 2021).

Experiments:
mouse model of DMD = details: cited from earlier work
patient cells = details: cited from earlier work

O=C1CN(/N=C/c2ccc(-c3ccc([N+](=O)[O-])cc3)o2)C(O)=N1 [dantrolene]
effect on antisense-mediated exon skipping (mouse model of DMD): enhance antisense-mediated exon skipping | effect on antisense-mediated exon skipping (patient cells): enhance antisense-mediated exon skipping
